Measured values: patent US20260207563A1, “UREA COMPOUNDS AS ACTIVATORS OF POTASSIUM CHANNELS KV7.2/7.3 USEFUL IN THE TREATMENT OF CNS AND PNS DISORDERS” (ANGELINI PHARMA S.P.A., priority 2022, published 2026)
pEC50: −log10 of the molar value.

Columns and labels:
Assay type in all cases: cell-based
[1] = target: T1, homomeric KV7.4 channel (KCNQ4) (Homo sapiens, UniProt P56696); test: Automated patch-clamp (Qube) counter-screening assay against KV7.4 channel; settings: CHO-K1 cells expressing KV7.4; class by maximal shift in the Vhalf at 30 μM
T1 construct: host or cells: CHO-K1
Outline: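 CHO-K1 cells stably expressing homomeric human KV7.4 were recorded on the Qube automated patch clamp. Ten concentrations (1:3 dilutions from 30 μM) were tested in quadruplicate. The mean Vhalf shift was fitted with a 4-parameter logistic to give EC50 and maximal Vhalf shift, and selectivity was based on the shift at 30 μM.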

[2] = target: T2, heteromeric KV7.3/KV7.5 channel (KCNQ3, KCNQ5) (Homo sapiens, UniProt O43525+Q9NR82); test: Automated patch-clamp counter-screening against KV7.3/KV7.5 channel; settings: HEK293 cells expressing Kv7.3/KV7.5; class by maximal shift in the Vhalf at 30 μM
T2 construct: host or cells: HEK293
Outline: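 HEK293 cells with constitutive Kv7.3 and tetracycline-inducible Kv7.5 were recorded by automated patch clamp. Ten concentrations (1:3 series from 30 μM, quadruplicate) were tested; Vhalf shifts were fitted with a 4-parameter logistic to give EC50 and maximal Vhalf shift, with selectivity based on the shift at 30 μM.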

[3] = target: T3, heteromeric KV7.2/KV7.3 channels (KCNQ2, KCNQ3) (Homo sapiens, UniProt O43525+O43526); test: Automated patch-clamp (Sophion Qube 384) potency assay against KV7.2/KV7.3 channels; settings: CHO-K1/Kv7.2/Kv7.3 cells; for pEC50: EC50 from concentration-response of shift in Vhalf, 10 concentrations up to 30 μM, read-out: Kv7.2/7.3 EC50; for Kv7.2/7.3 ΔV1/2: maximal shift in the Vhalf from the top of the curve
T3 construct: expressed in transfected cells; host or cells: CHO-K1
Outline: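 Whole-cell automated patch clamp on CHO-K1 cells stably expressing human KV7.2/KV7.3, held at −80 mV; I-V steps −100 to +20 mV (1 s) with 0 mV tail pulses, Boltzmann-fitted activation curves. Ten concentrations (1:3 from 30 μM, quadruplicate) versus 0.3% DMSO control; EC50 and maximal shift from 4-parameter fits of Vhalf shift.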

SMILES: N#Cc1cccc2c1CC[C@H]2NC(=O)NCc1ccnc(OCC(F)(F)F)c1 [Compound 158]
- Kv7.4 selectivity criteria [1]: B (Non-selective compounds showed Kv7.4 and/or Kv7.3/7.5 ΔV1/2 higher than 15 mV (letter B in table 3))
- Kv7.3/7.5 selectivity criteria [2]: B (Non-selective compounds showed Kv7.4 and/or Kv7.3/7.5 ΔV1/2 higher than 15 mV (letter B in table 3))
- pEC50 [3]: 5.59
- Kv7.2/7.3 ΔV1/2 [3]: 31.18 mV

SMILES: Cc1ccc2c(c1)[C@@H](NC(=O)NCc1ccnc(OCC(F)(F)F)c1)CC2 [Compound 159]
- Kv7.4 selectivity criteria [1]: A (Selective compounds showed Kv7.4 and/or Kv7.3/7.5 ΔV1/2 equal to or lower than 15 mV (letter A in table 3))
- Kv7.3/7.5 selectivity criteria [2]: A (Selective compounds showed Kv7.4 and/or Kv7.3/7.5 ΔV1/2 equal to or lower than 15 mV (letter A in table 3))
- pEC50 [3]: 5.81
- Kv7.2/7.3 ΔV1/2 [3]: 15.05 mV

SMILES: N#Cc1cccc2c1CC[C@@H]2NC(=O)NCc1ccnc(OCC(F)(F)F)c1 [Compound 160]
- Kv7.4 selectivity criteria [1]: A (Selective compounds showed Kv7.4 and/or Kv7.3/7.5 ΔV1/2 equal to or lower than 15 mV (letter A in table 3))
- Kv7.3/7.5 selectivity criteria [2]: A (Selective compounds showed Kv7.4 and/or Kv7.3/7.5 ΔV1/2 equal to or lower than 15 mV (letter A in table 3))
- pEC50 [3]: 5.50
- Kv7.2/7.3 ΔV1/2 [3]: 25.41 mV

SMILES: C#CCOc1cc(CNC(=O)NCC2CCC(F)(F)CC2)ccn1 [Compound 161]
- Kv7.4 selectivity criteria [1]: A (Selective compounds showed Kv7.4 and/or Kv7.3/7.5 ΔV1/2 equal to or lower than 15 mV (letter A in table 3))
- Kv7.3/7.5 selectivity criteria [2]: A (Selective compounds showed Kv7.4 and/or Kv7.3/7.5 ΔV1/2 equal to or lower than 15 mV (letter A in table 3))
- pEC50 [3]: 5.15
- Kv7.2/7.3 ΔV1/2 [3]: 26.66 mV

SMILES: O=C(NCc1ccnc(OCC(F)(F)F)c1)N[C@@H]1CCc2ccc(C(F)(F)F)cc21 [Compound 162]
- Kv7.4 selectivity criteria [1]: B (Non-selective compounds showed Kv7.4 and/or Kv7.3/7.5 ΔV1/2 higher than 15 mV (letter B in table 3))
- Kv7.3/7.5 selectivity criteria [2]: A (Selective compounds showed Kv7.4 and/or Kv7.3/7.5 ΔV1/2 equal to or lower than 15 mV (letter A in table 3))
- pEC50 [3]: 6.03
- Kv7.2/7.3 ΔV1/2 [3]: 18.2 mV

SMILES: O=C(NCc1ccnc(OCC(F)(F)F)c1)N[C@H]1CCc2ccc(C(F)(F)F)cc21 [Compound 163]
- Kv7.4 selectivity criteria [1]: A (Selective compounds showed Kv7.4 and/or Kv7.3/7.5 ΔV1/2 equal to or lower than 15 mV (letter A in table 3))
- Kv7.3/7.5 selectivity criteria [2]: A (Selective compounds showed Kv7.4 and/or Kv7.3/7.5 ΔV1/2 equal to or lower than 15 mV (letter A in table 3))
- pEC50 [3]: 5.97
- Kv7.2/7.3 ΔV1/2 [3]: 27.41 mV

SMILES: COc1cc2c(cc1F)CC[C@H]2NC(=O)NCc1ccnc(OCC(F)(F)F)c1 [Compound 164]
- Kv7.4 selectivity criteria [1]: A (Selective compounds showed Kv7.4 and/or Kv7.3/7.5 ΔV1/2 equal to or lower than 15 mV (letter A in table 3))
- Kv7.3/7.5 selectivity criteria [2]: A (Selective compounds showed Kv7.4 and/or Kv7.3/7.5 ΔV1/2 equal to or lower than 15 mV (letter A in table 3))
- pEC50 [3]: 5.91
- Kv7.2/7.3 ΔV1/2 [3]: 25.3 mV

SMILES: O=C(NCc1ccnc(OCC(F)(F)F)c1)N[C@@H]1COc2ccc(F)cc21 [Compound 165]
- Kv7.4 selectivity criteria [1]: A (Selective compounds showed Kv7.4 and/or Kv7.3/7.5 ΔV1/2 equal to or lower than 15 mV (letter A in table 3))
- Kv7.3/7.5 selectivity criteria [2]: A (Selective compounds showed Kv7.4 and/or Kv7.3/7.5 ΔV1/2 equal to or lower than 15 mV (letter A in table 3))
- pEC50 [3]: 5.58
- Kv7.2/7.3 ΔV1/2 [3]: 28.4 mV

SMILES: COc1ccc2c(c1)OC[C@H]2NC(=O)NCc1ccnc(OCC(F)(F)F)c1 [Compound 166]
- Kv7.4 selectivity criteria [1]: A (Selective compounds showed Kv7.4 and/or Kv7.3/7.5 ΔV1/2 equal to or lower than 15 mV (letter A in table 3))
- Kv7.3/7.5 selectivity criteria [2]: A (Selective compounds showed Kv7.4 and/or Kv7.3/7.5 ΔV1/2 equal to or lower than 15 mV (letter A in table 3))
- pEC50 [3]: 5.07
- Kv7.2/7.3 ΔV1/2 [3]: 52.09 mV
